# From article PMC2898210 (ACS medicinal chemistry letters, 2010)
# pKd: −log10 of the molar value.
# Target: polo-box domain (PBD) of human polo-like kinase 1 (Plk1) (Homo sapiens, UniProt P53350)
# Assay: ELISA-based PBD competition assay against p-T78 peptide of PBIP1
# Assay type: binding
# Chain of polo-box domain (PBD) of human polo-like kinase 1 (Plk1) (P53350 367-603 limits assumed): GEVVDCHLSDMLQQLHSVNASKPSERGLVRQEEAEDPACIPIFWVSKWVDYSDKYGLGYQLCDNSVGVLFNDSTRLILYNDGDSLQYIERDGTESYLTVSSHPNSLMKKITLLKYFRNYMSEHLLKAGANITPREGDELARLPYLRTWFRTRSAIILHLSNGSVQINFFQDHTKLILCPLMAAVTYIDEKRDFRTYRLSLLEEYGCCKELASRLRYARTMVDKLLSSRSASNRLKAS
smiles,measurement,value
"O=c1c(O)cccc2cc(O)c(O)c(O)c12 [compound 2, Purpurogallin]",pKd,~5.57
